In PMC7065771, “Dietary supplementation of recombinant antimicrobial peptide Epinephelus lanceolatus piscidin improves growth performance and immune response in Gallus gallus domesticus” (PLoS ONE, 2020):

Tests used:
[1] = system: duodenum villus; assay: Intestinal morphology, histological analysis; type: in vivo, Gallus gallus domesticus; details: rEP animals compared to the control group, hematoxylin and eosin staining (S3 Fig)
Procedure: The growth promoting action of EP may be related to intestinal absorption and as such, small villus morphology was evaluated in a previous study. […] Moreover, growth enhancement has been observed in other reports. For example, feeding mice with PR39 peptide (4.7 kDa proline-rich AMP)-expressing Lactobacillus casei caused jejunum and duodenum villus height in the intestinal villi to increase. Use of recombinant porcine β-defensin 2 (rpBD2) as a feed additive for weaned piglets also produced increases in intestinal villus height of the duodenum and jejunum. Additionally, birds fed with AMP-A3 diet had increased villus height of the duodenum, jejunum and ileum. […] Fig). […] Supplementary file pone.0230021.s003.TIF: S3 Fig Effects of orally administered a rEP on posture, body weight, intestinal morphology, and gut flora. (a) After 28 days of feeding the 1.5% rEP-receiving chickens were larger than the spiraline A and basal diet controls. (b) The effects of feeding 1.5% rEP on body weight. (c) Representative picture of hematoxylin and eosin staining of intestinal villi and crypts. (d) The intestinal villus length and crypt depth were measured. (e) The effects of orally administrated the spiraline A, basal diet, and 1.5% rEP on intestinal microflora in G. g. domesticus. Relative proportions of bacterial families are shown. […]

[2] = system: Gallus gallus domesticus; assay: Dietary supplementation trial, growth performance and survival; type: in vivo; details: ad libitum, 35 days (table title: 4 weeks), n = 27; for FE (feed efficiency) / PER (protein efficiency ratio) / Weight gain: mean ± SD
Source text: A total of 189 male or female 2-day-old G. g. domesticus were randomly assigned to seven dietary treatment groups, including rEP (0.75, 1.5, 3.0, 6.0 and 12%), spiraline-A (Juily Pharmaceutical Co., LTD. San Sia, Taipei Hsien, Taiwan), and basal diet groups. Each treatment group consisted of one cage with twenty-seven G. g. domesticus. The composition of the fodder is presented in S1b–S1d Table. The animals were allowed ad libitum access to fodder and water for the duration of the trial, beginning from 3 days of age. The total time of feeding was 35 days. The G. g. domesticus were maintained in a cage (animal container) with a constant environment (28.9–37.8°C, 12/12 h light-dark cycle). rEP fodder and fecal sewage were not directly discharged to the outside.
Body weight and survival rate were monitored daily during the experimental period. The weight gain, feed efficiency (FE), protein efficiency ratio (PER), and survival percentage were calculated. After 35 days of treatment, the G. g. domesticus were euthanized, blood samples were collected and serum was obtained by centrifugation (3000 ×g for 15 min at 4°C). Serum was kept at -80°C until analysis. Enzyme-linked immunosorbent assay (ELISA) was performed in accordance with the manufacturer’s standard procedures to determine the levels of immunological factors, including TNF-α, Interleukin-1β, Interleukin-6, Interleukin-10, Lysozyme, Immunoglobin-G (IgG), and Interferon-γ. Chicken serum samples were analyzed with ELISA kits from ABclonal Inc. (Woburn, MA, USA). After the reaction was completed, the optical density (OD) was measured at 450 nm on a microplate reader (SpectraMax® i3, Molecular Devices, Lagerhausstrasse, Wals, Austria).
Data were analyzed with Prism 7 software (GraphPad Inc., La Jolla, CA, USA). Values represent the mean ± standard deviation (SD). P < 0.05 was considered significant for one-way Analysis of variance (ANOVA) with Tukey’s multiple comparison test.

[3] = diet with 0.75% rEP spray-dried powder
[4] = diet with 1.5% rEP spray-dried powder
[5] = diet with 3.0% rEP spray-dried powder
[6] = diet with 6.0% rEP spray-dried powder
[7] = diet with 12.0% rEP spray-dried powder

Sequence: EFFIFHIIKGLFHAGRMIHGLVNRRRHRHHHHHH [rEP, recombinant His-tagged Epinephelus lanceolatus piscidin from Pichia pastoris, used as crude culture supernatant or spray-dried powder]
- Duodenum villus height [1]: significantly greater
- FE (feed efficiency) [2, 3]: 0.53±0.03
- PER (protein efficiency ratio) [2, 3]: 1.58±0.09
- Weight gain [2, 3]: 2531.80±142.13%
- Survival [2, 3]: 92.60%
- FE (feed efficiency) [2, 4]: 0.58±0.03
- PER (protein efficiency ratio) [2, 4]: 1.8±0.08
- Weight gain [2, 4]: 2727.42±116.08%
- Survival [2, 4]: 100%
- FE (feed efficiency) [2, 5]: 0.57±0.02
- PER (protein efficiency ratio) [2, 5]: 1.86±0.08
- Weight gain [2, 5]: 2809.71±119.30%
- Survival [2, 5]: 96.20%
- FE (feed efficiency) [2, 6]: 0.57±0.02
- PER (protein efficiency ratio) [2, 6]: 2.03±0.08
- Weight gain [2, 6]: 2738.11±109.04%
- Survival [2, 6]: 100%
- FE (feed efficiency) [2, 7]: 0.48±0.04
- PER (protein efficiency ratio) [2, 7]: 2.17±0.16
- Weight gain [2, 7]: 2181.26±158.95%
- Survival [2, 7]: 96.20%
